Assay in all cases: Hits validation, dose-response cell proliferation (CellTiter-Glo)
Common to all, as to type: cell-based
In general terms: In ATP-based viability assays light output follows the ATP content of the culture.

One assay has as its system A673. The note with it: 12-point dose-response 50 μmol/L to 1 nmol/L, mean ± SD. The method, then:
(§1) For hits validation and combination study, cells were harvested and aliquoted into 384-well plates at concentrations of 750–1,500 cells per well in a total of 20 μl/well using a Matrix Wellmate (Thermo Scientific). Five μl of culture media containing either vehicles or drug were added to each well the next day (drug concentrations range from 1 nmol/L to 50 μmol/L). For combination study, selected drugs were archived in robotically accessible plates, to which media was added in preparation for addition to master plates by a Nimbus 96 liquid-dispensing workstation (Hamilton). Liquid transfers to dilution and assay plates were handled using the same workstation. Each 384-well master plate contained four 9 by 9 dose-matrix blocks, with eight serial two-fold dilutions (concentrations range from 7.8 nmol/L to 1 μmol/L). Additional wells were reserved for untreated, and vehicle-treated control wells. Cell proliferation was evaluated using Cell-Titer Glo® reagents (Promega). IC50 values were determined for each drug using SigmaPlot (Systat Software). The combination index values were calculated using SigmaPlot (Systat Software) and CompuSyn.

Another assay relates to CHLA-258. The conditions noted are these: 12-point dose-response 50 μmol/L to 1 nmol/L, mean ± SD. The method, then: as §1
The test system of the next assay is COG-E-352. The conditions noted are these: 12-point dose-response 50 μmol/L to 1 nmol/L, mean ± SD. How it is done: as §1
Another assay relates to Hs 822.T. The note with it: control cell line, 12-point dose-response, mean ± SD. How it is done:
as §1

For another assay, the system named is Hs 863.T. The note with it: control cell line, 12-point dose-response, mean ± SD. The method, then: as §1
Another assay deals with RD-ES. The note with it: 12-point dose-response 50 μmol/L to 1 nmol/L, mean ± SD. How it is done: as §1
Another assay concerns SK-ES-1. The note with it: 12-point dose-response 50 μmol/L to 1 nmol/L, mean ± SD. How it is done: as §1
In the next assay the test system is TC-71. The conditions noted are these: 12-point dose-response 50 μmol/L to 1 nmol/L, mean ± SD. How it is done:
as §1

A further assay concerns Hs 919.T. The conditions noted are these: control cell line, 12-point dose-response, mean ± SD. How it is done: These drugs were chosen based on their known mechanisms and safety profiles. We also tested the synergy between these drug hits (Supplementary Figures S6–S11). […] We evaluated the anti-proliferation effect in combination treatments using the EWS and control cell lines.
as §1

The structures appear in SMILES notation.

By IC50 is commonly meant the concentration that inhibits the measured activity by half.

Take `OCCN1CCN(CCCN2c3ccccc3Sc3ccc(C(F)(F)F)cc32)CC1` [Fluphenzaine]: the IC50 in the assay on A673 worked out at 10.5 ± 2.89 µM; in the assay on CHLA-258 it was 19 ± 6.79 µM; with COG-E-352 it was 16.1 ± 7.51 µM; with Hs 822.T. it was 22.7 ± 7.23 µM; in the assay with Hs 863.T., 20.5 ± 2.88 µM; in the assay with RD-ES, 14.3 ± 3.21 µM. Besides, the IC50 in the assay on SK-ES-1 was determined as 16.3 ± 3.66 µM; in the assay with TC-71 it was 17 ± 6.68 µM; with Hs 919.T. it was 15.5 ± 3.68 µM.
As for `COC1=C2C[C@@H](C)C[C@H](OC)[C@H](O)[C@@H](C)/C=C(\C)[C@H](OC(N)=O)[C@@H](OC)/C=C\C=C(/C)C(=O)NC(=CC1=O)C2=O` [Geldanamycin], the IC50 is 1.93 ± 0.05 µM with A673 (Homo sapiens, A673); less than 0.003 µM in the assay on CHLA-258; less than 0.003 µM in the assay with COG-E-352; more than 20 µM in the assay on Hs 822.T.; more than 20 µM in the assay on Hs 863.T.; 0.05 ± 0.003 µM in the assay with RD-ES (RD-ES). For the same compound, the IC50 in the assay on SK-ES-1 (Homo sapiens, SK-ES1) was 0.03 ± 0.002 µM; in the assay on TC-71 (TC-71), less than 0.003 µM; in the assay on Hs 919.T. it was more than 20 µM.
As to `c1coc(CNc2ncnc3[nH]cnc23)c1` [Kinetin], the IC50 in the assay on A673 (Homo sapiens, A673) was more than 50 µM; with CHLA-258, more than 50 µM; in the assay on COG-E-352, more than 50 µM; in the assay with Hs 822.T. it was more than 50 µM; with Hs 863.T. it was more than 50 µM; in the assay with RD-ES (RD-ES), more than 50 µM. Moreover, the IC50 is more than 50 µM in the assay with SK-ES-1 (Homo sapiens, SK-ES1); more than 50 µM in the assay with TC-71 (TC-71); more than 50 µM with Hs 919.T..
For `CN1C[C@H](CO)C=C2c3cccc4[nH]cc(c34)C[C@H]21` [Lysergol], the IC50 with A673, in the assay on CHLA-258, in the assay with COG-E-352, in the assay with Hs 822.T., in the assay with Hs 863.T. and in the assay on RD-ES was more than 50 µM in each case. For the same compound, the IC50 in the assay with SK-ES-1, with TC-71 and with Hs 919.T. was more than 50 µM throughout.
Take `Nc1ccccc1NC(=O)c1ccc(CNC(=O)OCc2cccnc2)cc1` [MS275]: the IC50 was 2.5 ± 1.02 µM with A673 (Homo sapiens, A673); 0.15 ± 0.03 µM in the assay on CHLA-258; 1.47 ± 0.54 µM in the assay with COG-E-352; more than 25 µM in the assay with Hs 822.T.; more than 25 µM with Hs 863.T.; 2 ± 0.85 µM in the assay with RD-ES (RD-ES). Besides, the IC50 was 2.4 ± 1.01 µM in the assay on SK-ES-1 (Homo sapiens, SK-ES1); 1.53 ± 0.49 µM in the assay on TC-71 (TC-71); more than 50 µM in the assay on Hs 919.T..
`CN(C)CCOC(=O)COc1ccc(Cl)cc1` [Meclofenoxate]: the IC50 in the assay with A673 (Homo sapiens, A673) is more than 50 µM; in the assay with CHLA-258, more than 50 µM; in the assay with COG-E-352, more than 50 µM; in the assay on Hs 822.T., more than 50 µM; with Hs 863.T., more than 50 µM; in the assay on RD-ES (RD-ES), more than 50 µM. For the same compound, the 50% inhibitory concentration (IC50) in the assay with SK-ES-1 (Homo sapiens, SK-ES1) is more than 50 µM; in the assay on TC-71 (TC-71), more than 50 µM; in the assay on Hs 919.T., more than 50 µM.
With `CC1=CC(=O)c2ccccc2C1=O` [Menadione], the IC50 in the assay on A673 (Homo sapiens, A673) is 6.8 ± 1.35 µM; in the assay on CHLA-258, 3.64 ± 2.08 µM; with COG-E-352 it was 5.62 ± 1.31 µM; in the assay with Hs 822.T., 12.2 ± 2.12 µM; in the assay with Hs 863.T. it was 14.2 ± 3.2 µM; with RD-ES (RD-ES) it was 10.6 ± 3.2 µM. Besides, the IC50 in the assay with SK-ES-1 (Homo sapiens, SK-ES1) amounted to 5.56 ± 1.24 µM; with TC-71 (TC-71), 2.94 ± 3.48 µM; with Hs 919.T., 15.8 ± 2.35 µM.
With `O=C(Nc1ccc([N+](=O)[O-])cc1Cl)c1cc(Cl)ccc1O` [Niclosamide], the IC50 with A673 (Homo sapiens, A673) turned out to be 7.02 ± 1.23 µM; with CHLA-258, 0.7 ± 0.14 µM; with COG-E-352, 0.42 ± 0.07 µM; in the assay on Hs 822.T. it was 15.2 ± 3.51 µM; in the assay with Hs 863.T., 10.5 ± 2.66 µM; in the assay with RD-ES (RD-ES), 8.54 ± 1.55 µM. In addition, the IC50 in the assay on SK-ES-1 (Homo sapiens, SK-ES1) was 12.5 ± 2.36 µM; with TC-71 (TC-71), 0.79 ± 0.47 µM; in the assay on Hs 919.T., 10.6 ± 2.84 µM.
As to `COc1cc(NC(C)CCCN)c2ncccc2c1` (stereo not drawn) [Primaquine], the IC50 is 32.5 ± 6.58 µM in the assay on A673 (Homo sapiens, A673); 7.14 ± 2.21 µM with CHLA-258; 13.3 ± 4.09 µM in the assay on COG-E-352; more than 25 µM in the assay on Hs 822.T.; more than 25 µM with Hs 863.T.; more than 25 µM in the assay on RD-ES (RD-ES). Moreover, the IC50 in the assay with SK-ES-1 (Homo sapiens, SK-ES1) is more than 25 µM; in the assay with TC-71 (TC-71), 14.3 ± 3.71 µM; with Hs 919.T., more than 50 µM.

(Values after paper PMC5354814, “In silico and in vitro drug screening identifies new therapeutic approaches for Ewing sarcoma” (Oncotarget, 2016).)
